Patent US8673854B2, “Prophylactic agent for heart failure” (Calpis Co., Ltd., priority 2007, dated 2014)

Key:
Type in all cases: in vivo, male Wistar rats
[1] = test system: rat left ventricle wall thickening; assay: Test 3: effect to suppress left ventricle wall thickening in rats administered with L-NAME; conditions: compared with L-NAME alone; drinking water with L-NAME 1 g/L plus IPP 0.3 g/L or Enalapril 0.5 mg/L, ad libitum for eight weeks; FIG. 3
Method: (§1) The tripeptide Ile Pro Pro (IPP) was also tested for the suppressive effect against the thickening of the ventricle wall. The test was carried out using three groups of male Wistar rats of seven weeks old (Japan SLC, Inc.), each of which group consist of 9 to 11 rats. After acclimation for a week, the animals received: water with L-NAME (manufactured by Sigma) being dissolved at a concentration of 1 g/L; water with L-NAME and IPP being dissolved at a concentration of 1 g/L and 0.3 g/L respectively; or water with L-NAME and angiotensin converting enzyme (ACE) inhibitor, Enalapril at a concentration of 1 g/L and 0.5 mg/L respectively, ad libitum for eight weeks. The dose of Enalapril was determined such that its activity to inhibit ACE was equivalent to the activity of IPP to inhibit ACE.
The rats were sacrificed by exsanguination under diethylether anesthesia. […] The sliced thin sections were stained with hematoxylin and eosin and the thickness of the left ventricle wall was measured. As for the measurement of the thickness of the ventricle wall, the thickness of a plural of the points for one section, each of which point was considered to have an average thickness, was actually measured with an ocular micrometer under a microscope. The average thickness was defined as the measured value of the section and subjected to statistical analysis. […]

[2] = test system: rat right ventricle wall thickening; assay: Test 4: effect to suppress right ventricle wall thickening in rats administered with L-NAME; conditions: L-NAME 1 g/L plus IPP 0.3 g/L or Enalapril 0.5 mg/L in water, eight weeks; for Normal (right ventricle wall equal to or smaller than reference value) / Thickening Positive (right ventricle wall thicker than reference value of rats without L-NAME): likelihood-ratio test, IPP group p < 0.01
Method: In order also to check the effect of the tripeptide Ile Pro Pro (IPP) to suppress the thickening of the right ventricle wall, a test was carried out in the same manner as in Test 3, and measurement and evaluation were made.
as §1, with “The” for “The tripeptide Ile Pro Pro (IPP) was also tested for the suppressive effect against the thickening of the ventricle wall. The”, “12” for “11”, “animal” for “animals”
The rats were sacrificed by exsanguination under diethylether anesthesia. The heart was enucleated and then fixed with 10% neutral buffered formalin solution. Annularly-shaped tissue samples were prepared from the fixed heart by horizontally excising the lower part of the atria such that the right ventricle, septum, left ventricle, and coronary artery were included. The specimen were embedded in paraffin and cut into thin sections with a thickness of 3.0 to 3.5 μm using a microtome. Two to five sections per rat were prepared. Slices of the thin sections were stained with hematoxylin and eosin and the thickness of the right ventricle wall was measured. As for the measurement of the thickness of the ventricle wall, the thickness of a plural of the points for one section, each of which point was considered to have an average thickness, was actually measured with an ocular micrometer under a microscope. The average thickness was defined as the measured value of the section and the thickness of the ventricle wall of each individual was determined. The measurement and evaluation of the thickness was carried out by a pathologist who was not informed of the name of each sample.
The evaluation of the thickening of the ventricle wall involved the measurement of the thickness of the ventricle wall of six rats of the same age in weeks, which rats were fed with general tap water with no L-NAME being added. The average of those was defined as a reference value. In cases where the thickness of its ventricle wall was larger than the reference value, a rat was defined as one with the thickening, whereas in cases where the thickness of its ventricle wall was equal to or smaller than the reference value, a rat was considered to be normal. Using the number of the rats with the thickening and the normal rats, comparisons by likelihood-ratio test were made.

[3] = test system: rat heart septal wall thickening; assay: Test 5: effect to suppress heart septal wall thickening in rats administered with L-NAME; conditions: compared with L-NAME alone; drinking water with L-NAME 1 g/L plus IPP 0.3 g/L or Enalapril 0.5 mg/L, ad libitum for eight weeks; FIG. 4
[4] = test system: rat left ventricle wall thickening; assay: Test 1: effect to suppress left ventricle wall thickening in rats administered with L-NAME; conditions: compared with L-NAME alone; drinking water with L-NAME 1 g/L plus VPP 0.3 g/L or Enalapril 0.5 mg/L, ad libitum for eight weeks; FIG. 1
Method: The tripeptide Val Pro Pro (VPP) was tested for the effect of suppressing the thickening of the left ventricle. The test was carried out using three groups of male Wistar rats of seven weeks old (Japan SLC, Inc.), each of which group consisted of 9 to 12 rats. […] The dose of Enalapril was determined such that its activity to inhibit ACE was equivalent to VPP's.
The rats were sacrificed by exsanguination under diethylether anesthesia. […] The sliced thin sections were stained with hematoxylin and eosin and the thickness of the left ventricle wall was measured. As for the measurement of the thickness of the ventricle wall, the thickness of a plural of the points per one section, each of which point was considered to have an average thickness, was actually measured with an ocular micrometer under a microscope. The average thickness was defined as the measured value of the section and subjected to statistical analysis. […]

[5] = test system: rat right ventricle wall thickening; assay: Test 2: effect to suppress right ventricle wall thickening in rats administered with L-NAME; conditions: compared with L-NAME alone; drinking water with L-NAME 1 g/L plus VPP 0.3 g/L or Enalapril 0.5 mg/L, ad libitum for eight weeks; FIG. 2

Row | Compound | thickness of the left ventricle wall [1] | suppression of the thickening of the right ventricle wall (result in words) [2] | Normal (right ventricle wall equal to or smaller than reference value) [2] | Thickening Positive (right ventricle wall thicker than reference value of rats without L-NAME) [2] | thickness of the heart septal wall [3] | thickness of the left ventricle wall [4] | thickness of the right ventricle wall [5]
1 | Ile Pro Pro [IPP] | showed a decrease in the thickness of the left ventricle wall | suppressed the thickening of the right ventricle wall | 9 rats | 0 rats | showed a decrease in the thickness of the heart septal wall |  | 
2 | CCOC(=O)[C@H](CCc1ccccc1)N[C@@H](C)C(=O)N1CCC[C@H]1C(=O)O [Enalapril] | did not exhibit such an effect | did not exhibit such an effect | 8 rats | 1 rat^ rats | did not exhibit the effect | did not exhibit the effect | did not show such an effect
3 | Val Pro Pro [VPP] |  |  |  |  |  | showed a decrease in the thickness of the left ventricle wall | showed a decrease in the thickness of the right ventricle wall
